Measured values from ChEMBL document CHEMBL1129969 (J Med Chem, 1997).

Experiments:
Rattus norvegicus [1] = assay: Biological activity was determined by uterotonic in vivo test using urethane-anesthetized rats (protracted action); format: functional
Oxytocin receptor = biological target: T1, Oxytocin receptor (Rattus norvegicus, UniProt P70536); assay: Binding affinity against Oxytocin receptor was determined in rat uterine membrane using radioligand [3H]oxytocin; format: cell membranes
T1 sequence (P70536 whole entry): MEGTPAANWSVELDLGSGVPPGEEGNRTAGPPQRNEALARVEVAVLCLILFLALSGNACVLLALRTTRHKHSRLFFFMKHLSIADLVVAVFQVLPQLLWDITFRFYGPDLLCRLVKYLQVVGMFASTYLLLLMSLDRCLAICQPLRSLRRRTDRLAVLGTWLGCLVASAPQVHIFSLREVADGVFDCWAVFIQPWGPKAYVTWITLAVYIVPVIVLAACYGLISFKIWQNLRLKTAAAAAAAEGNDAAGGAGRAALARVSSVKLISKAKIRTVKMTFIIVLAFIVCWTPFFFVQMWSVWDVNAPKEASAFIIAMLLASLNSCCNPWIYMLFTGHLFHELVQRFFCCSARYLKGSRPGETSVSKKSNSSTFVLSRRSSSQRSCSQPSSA

Rattus norvegicus [2] = species: Rattus norvegicus; assay: Biological activity was determined by uterotonic in vitro test in magnesium-free solution; format: functional
Rattus norvegicus [3] = species: Rattus norvegicus; assay: Biological activity was determined by pressor test using pithed rat preparations (protracted action); format: functional
Rattus norvegicus [4] = species: Rattus norvegicus; assay: Biological activity was determined by pressor test using pithed rat preparations; format: functional
Rattus norvegicus [5] = assay: Biological activity was determined by uterotonic in vivo test using urethane-anesthetized rats; format: functional

| Ki (Oxytocin receptor) | Structure (SMILES) | Activity (Rattus norvegicus [1]) | Activity (Rattus norvegicus [2]) | Activity (Rattus norvegicus [3]) | Activity (Rattus norvegicus [4]) | Activity (Rattus norvegicus [5]) |
| --- | --- | --- | --- | --- | --- | --- |
| 3 nM | CC[C@H](C)[C@@H]1NC(=O)[C@H](Cc2ccc(O)cc2)NC(=O)CCSSSC[C@H](C(=O)N2CCC[C@H]2C(=O)N[C@@H](CC(C)C)C(=O)NCC(N)=O)NC(=O)[C@H](CC(N)=O)NC(=O)[C@H](CCC(N)=O)NC1=O [DEAMINOOXYTOCIN TRISULFIDE] | 135 IU mg-1 | 32.7 IU mg-1 | 0.6 IU mg-1 | – | – |
| 0.9 nM | CC[C@H](C)[C@@H]1NC(=O)[C@H](Cc2ccc(O)cc2)NC(=O)CCSSC[C@@H](C(=O)N2CCC[C@H]2C(=O)N[C@@H](CC(C)C)C(=O)NCC(N)=O)NC(=O)[C@H](CC(N)=O)NC(=O)[C@H](CCC(N)=O)NC1=O [DEMOXYTOCIN] | 541 IU mg-1 | 576 IU mg-1 | – | 5 IU mg-1 | – |
| 6 nM | CC[C@H](C)[C@@H]1NC(=O)[C@H](Cc2ccc(O)cc2)NC(=O)[C@@H](N)CSSSC[C@@H](C(=O)N2CCC[C@H]2C(=O)N[C@@H](CC(C)C)C(=O)NCC(N)=O)NC(=O)[C@H](CC(N)=O)NC(=O)[C@H](CCC(N)=O)NC1=O [OXYTOCIN TRISULFIDE] | – | – | – | – | – |
| – | CC[C@H](C)[C@@H]1NC(=O)[C@H](Cc2ccc(O)cc2)NC(=O)[C@@H](N)CSSC[C@@H](C(=O)N2CCC[C@H]2C(=O)N[C@@H](CC(C)C)C(=O)NCC(N)=O)NC(=O)[C@H](CC(N)=O)NC(=O)[C@H](CCC(N)=O)NC1=O [OXYTOCIN] | – | 510 IU mg-1 | – | 5 IU mg-1 | 450 IU mg-1 |
